Source: article PMC8619920, “New Polyesterified Ursane Derivatives from Leaves of Maesa membranacea and Their Cytotoxic Activity” (Molecules, 2021)

Experiments:
[1] = Cytotoxicity, LDH assay, PNT-2 cells; format: cell-based, human; settings: human, 24 h, mean ± SD of three, read-out: Cell viability PNT-2
Description: (§1) Cytotoxic activity was tested on human cancer and normal cells, grouped in three panels, namely: prostate, skin and gastrointestinal. The prostate panel consisted of prostate cancer cell lines Du145 (ATCC HTB-81) and PC3 (ATCC CRL-1435), and prostate epithelial cells PNT-2 (ECACC 95012613). Melanoma cell lines A375 (ATCC CRL-1619) and HTB140 (ATCC Hs 294T) together with skin keratinocytes HaCaT (obtained as a kind gift of prof. Marta Michalik, Department of Cell Biology, Jagiellonian University, Kraków, Poland) were included into the skin panel. The gastrointestinal panel of cells comprised colon cancer cell lines Caco-2 (ATCC HTB-37) and HT29 (ATCC HTB-38). Du145 cells were grown in Modified Eagle’s Medium with low (1.0 g/L) glucose concentration, HT29, PC3 and PNT-2 cells in Dulbecco’s Modified Eagle’s Media: F12 HAM Nutrient Mixture, Caco-2 in Modified Eagle’s Medium with NEAA (no-essential amino acids) while melanoma cells and keratinocytes were maintained in Modified Eagle’s Medium with high (4.5 g/L) glucose concentration. The culture media (all supplied by Sigma-Aldrich Co.; St. Louis, MO, USA) contained antibiotics and 10% fetal bovine serum (FBS). All cultures were maintained at 37 °C, in a humidified, 5% CO2 containing, atmosphere.
(§2) The examined triterpenes were diluted in the culture media from freshly made stock solutions in MeOH (10 mg/mL) to the working concentrations (from 0 to 100 μg/mL).
(§3) Cell viability was determined as it was described previously. Cells suspended in the nutrient medium were transferred into 96-well microtiter plates (density 1.5 × 10^4 per well), and preincubated for 24 h (37 °C, 5% CO2). Then, the culture medium was replaced with the medium containing different concentrations of 1 or 2 (1–100 μg/mL). After 24 h of incubation, viability of the cells was determined using colorimetric lactate dehydrogenase (LDH) assay, in comparison to the controls to which corresponding aliquots of MeOH diluted with culture media were added. Cells grown in the medium without the tested compounds were used as control I (negative) and the positive control (control II) was obtained by incubation of the cells in the medium containing 1% Triton X-100. LDH released from the damaged cells into the cell culture medium was quantified by measuring the absorbance at 490 nm using Synergy II Biotek (BioTek Instruments, Winooski, VT, USA) microplate reader. Cytotoxicities of the examined compounds were calculated as follows: [(absorbance of the tested sample − absorbance of control I)/(absorbance of control II − absorbance of control I)] × 100. Results were means of three independent measurements (± SD). Doxorubicin (Ebewe Pharma GmbH., Unterach, Austria) was used as a reference cytostatic drug. The IC50 values were determined by plotting the percentage viability of the cells versus concentration and the adequate calculations made using AAT Bioquest website program (https://www.aatbio.com/tools/ic50-calculator, accessed on 29 October 2021).

[2] = system: PNT-2 human normal prostate epithelium cells; experiment: Cytotoxicity, LDH assay, PNT-2 cells; format: cell-based
Description: as §1, §2, §3

[3] = Cytotoxicity, LDH assay, DU145 cells; format: cell-based, human; settings: human, DU145 prostate carcinoma cells, 24 h, mean ± SD of three, read-out: Cell viability DU145
Description: as §1, §2, §3

[4] = system: DU145 human prostate carcinoma cells; experiment: Cytotoxicity, LDH assay, DU145 cells; format: cell-based; settings: 24 h treatment; for IC50: Homo sapiens, DU-145, 24 h
Description: as §1, §2, §3

[5] = system: PC3 human prostate adenocarcinoma cells; experiment: Cytotoxicity, LDH assay, PC3 cells; format: cell-based; settings: 24 h treatment; for IC50: Homo sapiens, PC-3, 24 h
Description: as §1, §2, §3

[6] = Cytotoxicity, LDH assay, HaCaT cells; format: cell-based, human; settings: human, 24 h, mean ± SD of three, read-out: Cell viability HaCaT
Description: as §1, §2, §3

[7] = system: HaCaT human immortalized keratinocytes; experiment: Cytotoxicity, LDH assay, HaCaT cells; format: cell-based; settings: Homo sapiens, HaCaT; 24 h treatment, 5–100 μg/mL
Description: as §1, §2, §3

[8] = Cytotoxicity, LDH assay, HTB140 cells; format: cell-based, human; settings: human, HTB140 melanoma cells, 24 h, mean ± SD of three, read-out: Cell viability HTB140
Description: as §1, §2, §3

[9] = system: HTB140 human melanoma cells; experiment: Cytotoxicity, LDH assay, HTB140 cells; format: cell-based; settings: Homo sapiens; 24 h treatment, 5–100 μg/mL
Description: as §1, §2, §3

[10] = Cytotoxicity, LDH assay, HT29 cells; format: cell-based, human; settings: human, HT29 colon adenocarcinoma cells, 24 h, mean ± SD of three, read-out: Cell viability HT29
Description: as §1, §2, §3

[11] = system: HT29 human colon adenocarcinoma cells; experiment: Cytotoxicity, LDH assay, HT29 cells; format: cell-based; settings: Homo sapiens, HT-29; 24 h treatment, 5–100 μg/mL
Description: as §1, §2, §3

[12] = Cytotoxicity, LDH assay, Caco-2 cells; format: cell-based, human; settings: human, Caco-2, 24 h, mean ± SD of three, read-out: Cell viability Caco-2
Description: as §1, §2, §3

[13] = system: Caco-2 human colon adenocarcinoma cells; experiment: Cytotoxicity, LDH assay, Caco-2 cells; format: cell-based; settings: 24 h treatment; for IC50: Homo sapiens, Caco-2, 24 h
Description: as §1, §2, §3

Structure (SMILES): CCC(C)C(=O)OC1C=C2C3C(C)C(C)(O)CC(OC(C)=O)C3(C)CCC2(C)C2(C)CC(OC(C)=O)C3C(C)(C)C(O)C(OC(C)=O)CC3(C)C12 (stereo not drawn) [Compound 1, 2α,6β,22α-triacetoxy-11α-(2-methylbutyryloxy)-urs-12-ene-3α,20β-diol]
- viability at 24 h, 10 μg/mL ([1]; PNT-2 normal prostate epithelium cells, 10 μg/mL): 96.77 ± 0.6%
- viability at 24 h, 100 μg/mL ([1]; PNT-2 normal prostate epithelium cells, 100 μg/mL): 59 ± 2.2%
- viability at 24 h, 5 μg/mL ([1]; PNT-2 prostate epithelial cells, 5 μg/mL): 96.61 ± 0.53%
- viability at 24 h, 20 μg/mL ([1]; PNT-2 prostate epithelial cells, 20 μg/mL): 94.59 ± 0.9%
- viability at 24 h, 30 μg/mL ([1]; PNT-2 prostate epithelial cells, 30 μg/mL): 91 ± 1.07%
- viability at 24 h, 40 μg/mL ([1]; PNT-2 prostate epithelial cells, 40 μg/mL): 83 ± 1.41%
- viability at 24 h, 50 μg/mL ([1]; PNT-2 prostate epithelial cells, 50 μg/mL): 70.7 ± 2.58%
- Reduction of viability of PNT-2 cells ([2]; 100 µg/mL): 41%
- IC50 ([2]; Homo sapiens, PNT2, 24 h treatment, 5–100 μg/mL): > 100 mg/L
- viability at 24 h, 5 μg/mL ([3]; 5 μg/mL): 93.19 ± 0.93%
- viability at 24 h, 10 μg/mL ([3]; 10 μg/mL): 83.1 ± 1.96%
- viability at 24 h, 20 μg/mL ([3]; 20 μg/mL): 70.4 ± 1.69%
- viability at 24 h, 30 μg/mL ([3]; 30 μg/mL): 57.2 ± 2.2%
- viability at 24 h, 40 μg/mL ([3]; 40 μg/mL): 41.3 ± 1.91%
- viability at 24 h, 50 μg/mL ([3]; 50 μg/mL): 27.2 ± 2.28%
- viability at 24 h, 100 μg/mL ([3]; 100 μg/mL): 9.87 ± 1.59%
- IC50 DU145 ([4]; 5–100 μg/mL): 35.83 mg/L
- IC50 ([4]; 5–100 μg/mL): 35.8 mg/L
- IC50 ([4]; value in brackets, footnote d): 50 µM
- IC50 PC3 ([5]; 5–100 μg/mL): 41.64 mg/L
- IC50 ([5]; 5–100 μg/mL): 41.6 mg/L
- IC50 ([5]; value in brackets, footnote d): 58.1 µM
- viability at 24 h, 100 μg/mL ([6]; HaCaT immortalized keratinocytes, 100 μg/mL): 56.8 ± 2.2%
- viability at 24 h, 5 μg/mL ([6]; HaCaT keratinocytes, 5 μg/mL): 96.52 ± 0.8%
- viability at 24 h, 10 μg/mL ([6]; HaCaT keratinocytes, 10 μg/mL): 94.9 ± 1%
- viability at 24 h, 20 μg/mL ([6]; HaCaT keratinocytes, 20 μg/mL): 88.37 ± 0.47%
- viability at 24 h, 30 μg/mL ([6]; HaCaT keratinocytes, 30 μg/mL): 81.2 ± 1.77%
- viability at 24 h, 40 μg/mL ([6]; HaCaT keratinocytes, 40 μg/mL): 74 ± 1.72%
- viability at 24 h, 50 μg/mL ([6]; HaCaT keratinocytes, 50 μg/mL): 65.7 ± 1.22%
- IC50 [7]: > 100 mg/L
- viability at 24 h, 5 μg/mL ([8]; 5 μg/mL): 96.2 ± 1.12%
- viability at 24 h, 10 μg/mL ([8]; 10 μg/mL): 93.82 ± 0.73%
- viability at 24 h, 20 μg/mL ([8]; 20 μg/mL): 87.1 ± 2.09%
- viability at 24 h, 30 μg/mL ([8]; 30 μg/mL): 78.9 ± 2.08%
- viability at 24 h, 40 μg/mL ([8]; 40 μg/mL): 68.4 ± 2.17%
- viability at 24 h, 50 μg/mL ([8]; 50 μg/mL): 59.5 ± 1.4%
- viability at 24 h, 100 μg/mL ([8]; 100 μg/mL): 46.6 ± 2.09%
- IC50 [9]: > 50 mg/L
- viability at 24 h, 5 μg/mL ([10]; 5 μg/mL): 97.04 ± 0.42%
- viability at 24 h, 10 μg/mL ([10]; 10 μg/mL): 95.49 ± 0.82%
- viability at 24 h, 20 μg/mL ([10]; 20 μg/mL): 90.9 ± 1.37%
- viability at 24 h, 30 μg/mL ([10]; 30 μg/mL): 81.5 ± 1.89%
- viability at 24 h, 40 μg/mL ([10]; 40 μg/mL): 72.5 ± 1.94%
- viability at 24 h, 50 μg/mL ([10]; 50 μg/mL): 64.8 ± 1.69%
- viability at 24 h, 100 μg/mL ([10]; 100 μg/mL): 55.2 ± 1.73%
- IC50 [11]: > 100 mg/L
- viability at 24 h, 5 μg/mL ([12]; 5 μg/mL): 95.55 ± 0.74%
- viability at 24 h, 10 μg/mL ([12]; 10 μg/mL): 88.7 ± 0.93%
- viability at 24 h, 20 μg/mL ([12]; 20 μg/mL): 78.5 ± 1.94%
- viability at 24 h, 30 μg/mL ([12]; 30 μg/mL): 65.9 ± 1.21%
- viability at 24 h, 40 μg/mL ([12]; 40 μg/mL): 51.1 ± 2.4%
- viability at 24 h, 50 μg/mL ([12]; 50 μg/mL): 35.8 ± 1.32%
- viability at 24 h, 100 μg/mL ([12]; 100 μg/mL): 22.2 ± 1.53%
- IC50 Caco-2 ([13]; 5–100 μg/mL): 35.65 mg/L
- IC50 ([13]; 5–100 μg/mL): 35.7 mg/L
- IC50 ([13]; value in brackets, footnote d): 49.8 µM
